Experimental data: the supplement of paper PMC10307832

Key:
Test in all cases: relative viability (nuclei count vs DMSO), 5 days (fraction); higher = more cells survive
SGI-1776 + Crizotinib = compound: CN1CCC(CNc2ccc3ncc(-c4cccc(OC(F)(F)F)c4)n3n2)CC1 [SGI-1776] + C[C@@H](Oc1cc(-c2cnn(C3CCNCC3)c2)cnc1N)c1c(Cl)ccc(F)c1Cl [Crizotinib] (partner 1 µM)
Outline: (§1)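 Medians of duplicate plates are given as relative viability. That measure is the nuclei count in treated wells divided by the count in vehicle wells. Counts were taken on 4× images of lung cancer cell lines in 1536-well plates, 5 days after pin-tool dosing the day after seeding with one drug alone or a fixed anchor-drug dose plus five library-drug doses (not always all listed) in √10 steps.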

[1] = compound: C1COCCN1C2=NC(=NC3=C2OC4=C3C=CC=N4)C5=CC(=CC=C5)NC(=O)C6=CN=C(C=C6)N + CC(=O)c1c(C)c2cnc(Nc3ccc(N4CCNCC4)cn3)nc2n(C2CCCC2)c1=O [Palbociclib] (partner 0.5 µM)
Outline: as §1

Entinostat + Bortezomib = compound: Nc1ccccc1NC(=O)c1ccc(CNC(=O)OCc2cccnc2)cc1 [Entinostat] + CC(C)C[C@H](NC(=O)[C@H](Cc1ccccc1)NC(=O)c1cnccn1)B(O)O [Bortezomib] (partner 0.002 µM)
Outline: as §1

[2] = compound: C1COCCN1C2=NC(=NC3=C2OC4=C3C=CC=N4)C5=CC(=CC=C5)NC(=O)C6=CN=C(C=C6)N + N=C(N)NC(=N)NCCc1ccccc1 [Phenformin] (partner 250 µM)
Outline: as §1

RERF-LC-KJ
relative viability (SGI-1776 + Crizotinib; first compound 0.08 µM): 0.886 | relative viability (SGI-1776 + Crizotinib; first compound 0.8 µM): 0.786 | relative viability (SGI-1776 + Crizotinib; first compound 2.53 µM): 0.836 | relative viability (SGI-1776 + Crizotinib; first compound 8 µM): 0.865 | relative viability ([1]; first compound 0.02 µM): 1.04 | relative viability ([1]; first compound 0.06325 µM): 1.15 | relative viability ([1]; first compound 0.2 µM): 1.21 | relative viability ([1]; first compound 0.6325 µM): 1 | relative viability ([1]; first compound 2 µM): 0.764 | relative viability (Entinostat + Bortezomib; first compound 0.02 µM): 1.06 | relative viability (Entinostat + Bortezomib; first compound 0.06325 µM): 1.21 | relative viability (Entinostat + Bortezomib; first compound 0.2 µM): 0.998 | relative viability (Entinostat + Bortezomib; first compound 0.6325 µM): 0.643 | relative viability (Entinostat + Bortezomib; first compound 2 µM): 0.417 | relative viability ([2]; first compound 0.02 µM): 0.416 | relative viability ([2]; first compound 0.06325 µM): 0.484 | relative viability ([2]; first compound 0.2 µM): 0.395 | relative viability ([2]; first compound 0.6325 µM): 0.426 | relative viability ([2]; first compound 2 µM): 0.291

CAL-12T
relative viability (SGI-1776 + Crizotinib; first compound 0.08 µM): 0.682 | relative viability (SGI-1776 + Crizotinib; first compound 0.8 µM): 0.327 | relative viability (SGI-1776 + Crizotinib; first compound 2.53 µM): 0.254 | relative viability (SGI-1776 + Crizotinib; first compound 8 µM): 0.232 | relative viability ([1]; first compound 0.02 µM): 0.351 | relative viability ([1]; first compound 0.06325 µM): 0.44 | relative viability ([1]; first compound 0.2 µM): 0.285 | relative viability ([1]; first compound 0.6325 µM): 0.398 | relative viability ([1]; first compound 2 µM): 0.326 | relative viability (Entinostat + Bortezomib; first compound 0.02 µM): 1.19 | relative viability (Entinostat + Bortezomib; first compound 0.06325 µM): 0.973 | relative viability (Entinostat + Bortezomib; first compound 0.2 µM): 0.96 | relative viability (Entinostat + Bortezomib; first compound 0.6325 µM): 0.99 | relative viability (Entinostat + Bortezomib; first compound 2 µM): 0.665 | relative viability ([2]; first compound 0.02 µM): 0.525 | relative viability ([2]; first compound 0.06325 µM): 0.561 | relative viability ([2]; first compound 0.2 µM): 0.533 | relative viability ([2]; first compound 0.6325 µM): 0.498 | relative viability ([2]; first compound 2 µM): 0.247

COR-L 105
relative viability (SGI-1776 + Crizotinib; first compound 0.08 µM): 1.03 | relative viability (SGI-1776 + Crizotinib; first compound 0.8 µM): 0.717 | relative viability (SGI-1776 + Crizotinib; first compound 2.53 µM): 0.464 | relative viability (SGI-1776 + Crizotinib; first compound 8 µM): 0.287 | relative viability ([1]; first compound 0.02 µM): 0.413 | relative viability ([1]; first compound 0.06325 µM): 0.403 | relative viability ([1]; first compound 0.2 µM): 0.371 | relative viability ([1]; first compound 0.6325 µM): 0.363 | relative viability ([1]; first compound 2 µM): 0.359 | relative viability (Entinostat + Bortezomib; first compound 0.02 µM): 0.608 | relative viability (Entinostat + Bortezomib; first compound 0.06325 µM): 0.914 | relative viability (Entinostat + Bortezomib; first compound 0.2 µM): 0.926 | relative viability (Entinostat + Bortezomib; first compound 0.6325 µM): 0.484 | relative viability (Entinostat + Bortezomib; first compound 2 µM): 0.313 | relative viability ([2]; first compound 0.02 µM): 0.402 | relative viability ([2]; first compound 0.06325 µM): 0.517 | relative viability ([2]; first compound 0.2 µM): 0.404 | relative viability ([2]; first compound 0.6325 µM): 0.41 | relative viability ([2]; first compound 2 µM): 0.274

NCI-H2405
relative viability (SGI-1776 + Crizotinib; first compound 0.08 µM): 0.857 | relative viability (SGI-1776 + Crizotinib; first compound 0.8 µM): 0.809 | relative viability (SGI-1776 + Crizotinib; first compound 2.53 µM): 0.854 | relative viability (SGI-1776 + Crizotinib; first compound 8 µM): 0.642 | relative viability ([1]; first compound 0.02 µM): 0.498 | relative viability ([1]; first compound 0.06325 µM): 0.566 | relative viability ([1]; first compound 0.2 µM): 0.499 | relative viability ([1]; first compound 0.6325 µM): 0.48 | relative viability ([1]; first compound 2 µM): 0.359 | relative viability (Entinostat + Bortezomib; first compound 0.02 µM): 1.01 | relative viability (Entinostat + Bortezomib; first compound 0.06325 µM): 1.04 | relative viability (Entinostat + Bortezomib; first compound 0.2 µM): 0.976 | relative viability (Entinostat + Bortezomib; first compound 0.6325 µM): 0.916 | relative viability (Entinostat + Bortezomib; first compound 2 µM): 0.653 | relative viability ([2]; first compound 0.02 µM): 0.373 | relative viability ([2]; first compound 0.06325 µM): 0.41 | relative viability ([2]; first compound 0.2 µM): 0.37 | relative viability ([2]; first compound 0.6325 µM): 0.353 | relative viability ([2]; first compound 2 µM): 0.338

NCI-H2228
relative viability (SGI-1776 + Crizotinib; first compound 0.08 µM): 0.523 | relative viability (SGI-1776 + Crizotinib; first compound 0.8 µM): 0.417 | relative viability (SGI-1776 + Crizotinib; first compound 2.53 µM): 0.396 | relative viability (SGI-1776 + Crizotinib; first compound 8 µM): 0.15 | relative viability ([1]; first compound 0.02 µM): 0.934 | relative viability ([1]; first compound 0.06325 µM): 0.817 | relative viability ([1]; first compound 0.2 µM): 0.407 | relative viability ([1]; first compound 0.6325 µM): 0.64 | relative viability ([1]; first compound 2 µM): 0.621 | relative viability (Entinostat + Bortezomib; first compound 0.02 µM): 0.815 | relative viability (Entinostat + Bortezomib; first compound 0.06325 µM): 0.831 | relative viability (Entinostat + Bortezomib; first compound 0.2 µM): 1.05 | relative viability (Entinostat + Bortezomib; first compound 0.6325 µM): 0.462 | relative viability (Entinostat + Bortezomib; first compound 2 µM): 0.204 | relative viability ([2]; first compound 0.02 µM): 0.322 | relative viability ([2]; first compound 0.06325 µM): 0.392 | relative viability ([2]; first compound 0.2 µM): 0.273 | relative viability ([2]; first compound 0.6325 µM): 0.233 | relative viability ([2]; first compound 2 µM): 0.222

PC-14
relative viability (SGI-1776 + Crizotinib; first compound 0.08 µM): 0.889 | relative viability (SGI-1776 + Crizotinib; first compound 0.8 µM): 0.895 | relative viability (SGI-1776 + Crizotinib; first compound 2.53 µM): 0.96 | relative viability (SGI-1776 + Crizotinib; first compound 8 µM): 0.79 | relative viability ([1]; first compound 0.02 µM): 0.482 | relative viability ([1]; first compound 0.06325 µM): 0.562 | relative viability ([1]; first compound 0.2 µM): 0.562 | relative viability ([1]; first compound 0.6325 µM): 0.284 | relative viability ([1]; first compound 2 µM): 0.189 | relative viability (Entinostat + Bortezomib; first compound 0.02 µM): 0.833 | relative viability (Entinostat + Bortezomib; first compound 0.06325 µM): 0.949 | relative viability (Entinostat + Bortezomib; first compound 0.2 µM): 0.909 | relative viability (Entinostat + Bortezomib; first compound 0.6325 µM): 0.331 | relative viability (Entinostat + Bortezomib; first compound 2 µM): 0.128 | relative viability ([2]; first compound 0.02 µM): 0.478 | relative viability ([2]; first compound 0.06325 µM): 0.36 | relative viability ([2]; first compound 0.2 µM): 0.397 | relative viability ([2]; first compound 0.6325 µM): 0.446 | relative viability ([2]; first compound 2 µM): 0.268

IA-LM
relative viability (SGI-1776 + Crizotinib; first compound 0.08 µM): 0.514 | relative viability (SGI-1776 + Crizotinib; first compound 0.8 µM): 0.989 | relative viability (SGI-1776 + Crizotinib; first compound 8 µM): 0.69 | relative viability (Entinostat + Bortezomib; first compound 0.02 µM): 0.814 | relative viability (Entinostat + Bortezomib; first compound 0.06325 µM): 0.842 | relative viability (Entinostat + Bortezomib; first compound 0.2 µM): 1.03 | relative viability (Entinostat + Bortezomib; first compound 0.6325 µM): 0.597 | relative viability (Entinostat + Bortezomib; first compound 2 µM): 0.447

A549
relative viability (SGI-1776 + Crizotinib; first compound 0.08 µM): 0.789 | relative viability (SGI-1776 + Crizotinib; first compound 0.8 µM): 0.843 | relative viability (SGI-1776 + Crizotinib; first compound 2.53 µM): 0.553 | relative viability (SGI-1776 + Crizotinib; first compound 8 µM): 0.138 | relative viability ([2]; first compound 0.06325 µM): 0.159 | relative viability ([2]; first compound 0.2 µM): 0.142 | relative viability ([2]; first compound 0.6325 µM): 0.206 | relative viability ([2]; first compound 2 µM): 0.063

NCI-H2342
relative viability ([1]; first compound 0.02 µM): 0.525 | relative viability ([1]; first compound 0.06325 µM): 0.522 | relative viability ([1]; first compound 0.2 µM): 0.505 | relative viability ([1]; first compound 0.6325 µM): 0.512 | relative viability ([1]; first compound 2 µM): 0.515 | relative viability ([2]; first compound 0.02 µM): 0.651 | relative viability ([2]; first compound 0.06325 µM): 0.564 | relative viability ([2]; first compound 0.2 µM): 0.565 | relative viability ([2]; first compound 0.6325 µM): 0.695 | relative viability ([2]; first compound 2 µM): 0.576

NCI-H1623
relative viability ([2]; first compound 0.02 µM): 0.634 | relative viability ([2]; first compound 0.06325 µM): 0.587 | relative viability ([2]; first compound 0.2 µM): 0.6 | relative viability ([2]; first compound 0.6325 µM): 0.562 | relative viability ([2]; first compound 2 µM): 0.407

SW 1573
relative viability (SGI-1776 + Crizotinib; first compound 0.08 µM): 0.904 | relative viability (SGI-1776 + Crizotinib; first compound 0.8 µM): 0.835 | relative viability (SGI-1776 + Crizotinib; first compound 2.53 µM): 0.624 | relative viability (SGI-1776 + Crizotinib; first compound 8 µM): 0.395 | relative viability ([1]; first compound 0.02 µM): 0.397 | relative viability ([1]; first compound 0.06325 µM): 0.381 | relative viability ([1]; first compound 0.2 µM): 0.37 | relative viability ([1]; first compound 0.6325 µM): 0.429 | relative viability ([1]; first compound 2 µM): 0.261 | relative viability (Entinostat + Bortezomib; first compound 0.02 µM): 1.06 | relative viability (Entinostat + Bortezomib; first compound 0.06325 µM): 1.14 | relative viability (Entinostat + Bortezomib; first compound 0.2 µM): 1.19 | relative viability (Entinostat + Bortezomib; first compound 0.6325 µM): 0.836 | relative viability (Entinostat + Bortezomib; first compound 2 µM): 0.787 | relative viability ([2]; first compound 0.02 µM): 0.368 | relative viability ([2]; first compound 0.06325 µM): 0.454 | relative viability ([2]; first compound 0.2 µM): 0.314 | relative viability ([2]; first compound 0.6325 µM): 0.319 | relative viability ([2]; first compound 2 µM): 0.205
